What all share (assay type): cell-based
One test deals with T1, human TLR7 (Homo sapiens, UniProt Q9NYK1).
T1 construct: host or cells: HEK-Blue cells
T1 sequence (Q9NYK1 27-1049): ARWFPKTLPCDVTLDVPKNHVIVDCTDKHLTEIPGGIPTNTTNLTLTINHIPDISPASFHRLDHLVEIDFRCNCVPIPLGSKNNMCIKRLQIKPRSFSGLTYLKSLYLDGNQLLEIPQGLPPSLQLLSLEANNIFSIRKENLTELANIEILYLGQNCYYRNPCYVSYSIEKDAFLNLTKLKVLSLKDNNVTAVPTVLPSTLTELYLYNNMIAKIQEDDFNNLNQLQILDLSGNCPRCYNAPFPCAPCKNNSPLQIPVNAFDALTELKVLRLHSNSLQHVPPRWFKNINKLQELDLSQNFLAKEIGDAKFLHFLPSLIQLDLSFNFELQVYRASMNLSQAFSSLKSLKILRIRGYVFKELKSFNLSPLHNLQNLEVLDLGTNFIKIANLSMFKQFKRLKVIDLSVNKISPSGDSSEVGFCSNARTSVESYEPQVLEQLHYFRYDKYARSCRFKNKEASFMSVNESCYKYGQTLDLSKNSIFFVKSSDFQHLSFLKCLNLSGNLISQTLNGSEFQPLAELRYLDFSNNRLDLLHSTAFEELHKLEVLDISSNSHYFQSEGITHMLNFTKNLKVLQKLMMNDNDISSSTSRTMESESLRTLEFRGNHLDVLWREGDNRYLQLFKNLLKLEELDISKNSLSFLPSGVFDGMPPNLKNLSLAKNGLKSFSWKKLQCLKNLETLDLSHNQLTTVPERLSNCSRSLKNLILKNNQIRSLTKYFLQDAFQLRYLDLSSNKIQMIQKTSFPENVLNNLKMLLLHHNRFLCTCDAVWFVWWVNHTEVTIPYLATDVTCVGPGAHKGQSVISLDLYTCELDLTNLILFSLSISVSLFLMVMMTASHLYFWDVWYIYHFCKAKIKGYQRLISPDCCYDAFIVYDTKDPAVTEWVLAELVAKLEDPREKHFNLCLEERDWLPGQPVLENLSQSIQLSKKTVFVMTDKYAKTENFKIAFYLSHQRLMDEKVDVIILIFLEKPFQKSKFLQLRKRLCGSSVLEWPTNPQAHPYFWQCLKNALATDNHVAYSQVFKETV
Put plainly: TLR7 inhibition reporter assay (HEK-Blue cells, SEAP reporter, gardiquimod stimulation). Particulars: HEK-Blue cells overexpressing human TLR7, SEAP reporter, gardiquimod 7.5 μM. Put shortly:
(§1)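 Percent inhibition of agonist-induced SEAP, set between agonist+DMSO wells and known-inhibitor wells, after 22 h at 37° C. Compounds (0.05 nM-50 μM final) were added 30 min at room temperature before ligand: gardiquimod 7.5 μM for TLR7, R848 15.9 μM for TLR8, ODN2006 5 nM for TLR9. Human receptors overexpressed in HEK-Blue reporter cells.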

The target in the next test is T2, human TLR8 (Homo sapiens, UniProt Q9NR97).
T2 construct: host or cells: HEK-Blue cells
T2 sequence (Q9NR97 27-1041): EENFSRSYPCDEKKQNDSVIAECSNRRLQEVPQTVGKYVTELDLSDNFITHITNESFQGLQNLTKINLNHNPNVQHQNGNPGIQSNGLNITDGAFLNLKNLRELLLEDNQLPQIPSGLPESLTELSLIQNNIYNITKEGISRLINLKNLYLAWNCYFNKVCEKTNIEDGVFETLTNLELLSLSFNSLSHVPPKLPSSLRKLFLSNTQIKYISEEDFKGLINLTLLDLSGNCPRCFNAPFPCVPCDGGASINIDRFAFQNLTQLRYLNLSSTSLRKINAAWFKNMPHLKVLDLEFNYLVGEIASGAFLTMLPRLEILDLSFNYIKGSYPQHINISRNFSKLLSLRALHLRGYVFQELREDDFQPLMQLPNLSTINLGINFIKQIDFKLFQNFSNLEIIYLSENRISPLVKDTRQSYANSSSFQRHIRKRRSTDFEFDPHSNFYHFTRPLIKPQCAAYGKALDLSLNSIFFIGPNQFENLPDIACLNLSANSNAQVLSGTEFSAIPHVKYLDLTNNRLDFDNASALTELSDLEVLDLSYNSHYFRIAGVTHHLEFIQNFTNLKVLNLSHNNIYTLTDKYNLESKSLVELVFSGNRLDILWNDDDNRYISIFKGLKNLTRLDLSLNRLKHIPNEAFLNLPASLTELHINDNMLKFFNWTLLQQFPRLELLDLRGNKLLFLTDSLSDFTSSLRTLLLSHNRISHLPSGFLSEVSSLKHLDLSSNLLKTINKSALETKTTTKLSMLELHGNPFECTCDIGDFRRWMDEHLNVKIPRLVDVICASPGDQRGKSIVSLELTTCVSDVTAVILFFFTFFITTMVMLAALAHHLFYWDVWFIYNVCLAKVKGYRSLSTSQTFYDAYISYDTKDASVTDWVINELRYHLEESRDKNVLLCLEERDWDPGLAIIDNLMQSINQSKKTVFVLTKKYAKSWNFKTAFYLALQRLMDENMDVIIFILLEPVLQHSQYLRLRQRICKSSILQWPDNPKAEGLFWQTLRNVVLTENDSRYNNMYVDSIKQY
The test can be described thus: TLR8 inhibition reporter assay (HEK-Blue cells, SEAP reporter, R848 stimulation). Particulars: HEK-Blue cells overexpressing human TLR8, SEAP reporter, R848 15.9 μM. The essentials: as §1

A further test concerns the target T3, human TLR9 (Homo sapiens, UniProt Q9NR96).
T3 construct: host or cells: HEK-Blue cells
T3 sequence (Q9NR96 26-1032): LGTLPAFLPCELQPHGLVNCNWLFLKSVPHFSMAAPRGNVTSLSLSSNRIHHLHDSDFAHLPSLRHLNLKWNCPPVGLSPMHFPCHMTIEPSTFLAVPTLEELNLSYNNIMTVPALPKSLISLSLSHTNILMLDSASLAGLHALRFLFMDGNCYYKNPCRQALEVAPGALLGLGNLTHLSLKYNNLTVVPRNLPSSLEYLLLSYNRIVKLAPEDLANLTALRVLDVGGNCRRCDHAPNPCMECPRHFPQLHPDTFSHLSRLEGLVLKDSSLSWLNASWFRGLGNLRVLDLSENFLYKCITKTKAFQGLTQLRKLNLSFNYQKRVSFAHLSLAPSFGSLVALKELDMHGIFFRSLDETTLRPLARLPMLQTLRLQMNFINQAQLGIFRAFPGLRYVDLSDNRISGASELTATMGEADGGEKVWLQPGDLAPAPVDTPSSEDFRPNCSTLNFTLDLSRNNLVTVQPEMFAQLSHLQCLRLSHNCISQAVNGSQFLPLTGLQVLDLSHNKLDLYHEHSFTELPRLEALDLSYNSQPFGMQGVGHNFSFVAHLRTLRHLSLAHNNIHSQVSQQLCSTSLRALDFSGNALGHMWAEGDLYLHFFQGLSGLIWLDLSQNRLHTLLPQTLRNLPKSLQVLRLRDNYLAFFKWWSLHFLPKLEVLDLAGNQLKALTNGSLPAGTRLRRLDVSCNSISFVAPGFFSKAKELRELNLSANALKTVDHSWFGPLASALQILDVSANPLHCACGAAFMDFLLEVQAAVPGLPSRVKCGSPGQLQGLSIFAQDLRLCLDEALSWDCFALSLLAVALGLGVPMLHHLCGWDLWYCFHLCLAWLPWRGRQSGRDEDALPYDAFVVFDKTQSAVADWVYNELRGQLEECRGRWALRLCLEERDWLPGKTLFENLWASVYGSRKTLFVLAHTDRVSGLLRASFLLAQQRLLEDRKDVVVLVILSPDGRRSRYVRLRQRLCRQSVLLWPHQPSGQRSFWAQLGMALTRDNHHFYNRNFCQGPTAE
The test can be described thus: TLR9 inhibition reporter assay (HEK-Blue cells, SEAP reporter, ODN2006 stimulation). The following applies: HEK-Blue cells overexpressing human TLR9, SEAP reporter, ODN2006 5 nM. The essentials:
as §1

Molecules are shown by their SMILES. Where only a bound is given, the exact number is not on record here.

For `Cc1cc(-c2[nH]nc(C(=O)NCC3CN(CC(C)(C)C)CCO3)c2C(C)C)cn2ncnc12` (stereo not drawn) [Example 144], the IC50 against human TLR7 came to 7.26 nM; on human TLR8 it was 3.56 nM; against human TLR9, 15200 nM.

On to `Cc1cc(-c2[nH]nc(C(=O)NCC3CN(CC(C)(C)C)CCO3)c2C(C)C)cn2ncnc12` (stereo not drawn) [Example 145], for which the results for the IC50 against human TLR7, against human TLR8 and on human TLR9 were 60.3 nM, 41.6 nM and above 50000 nM, respectively.

With `COCC(C)N[C@H]1CC[C@H](NC(=O)c2n[nH]c(-c3cc(C)c4ncnn4c3)c2C(C)C)CC1` (stereo partly drawn) [Example 146], the IC50 worked out at 19.7 nM against human TLR7, 0.92 nM at human TLR8 and 16300 nM against human TLR9.

As to `COCC(C)N[C@H]1CC[C@@H](NC(=O)c2n[nH]c(-c3cc(C)c4ncnn4c3)c2C(C)C)CC1` (stereo partly drawn) [Example 147], the results for the IC50 against human TLR7, against human TLR8 and on human TLR9 were 90.1 nM, 5.67 nM and 18800 nM, respectively.

In the case of `Cc1cc(-c2[nH]nc(C(=O)N[C@H]3CC[C@H](NC(C)C(C)(C)C)CC3)c2C(C)C)cn2ncnc12` (stereo partly drawn) [Example 148], the results for the IC50 against human TLR7, against human TLR8 and on human TLR9 were 11.8 nM, 9.93 nM and above 50000 nM, respectively.

Consider `Cc1cc(-c2[nH]nc(C(=O)N[C@H]3CC[C@H](NCC4(C)COC4)CC3)c2C(C)C)cn2ncnc12` [Example 149], for which the IC50 is 108 nM on human TLR7, 98.5 nM at human TLR8 and above 50000 nM against human TLR9.

`Cc1cc(-c2[nH]nc(C(=O)N[C@H]3CC[C@@H](NC(C)C(C)(C)C)CC3)c2C(C)C)cn2ncnc12` (stereo partly drawn) [Example 150]: the values for the IC50 at human TLR7, against human TLR8 and against human TLR9 were 0.57 nM, 0.39 nM and 2830 nM, respectively.

Turning to `Cc1cc(-c2[nH]nc(C(=O)N[C@H]3CC[C@@H](NCC4(C)COC4)CC3)c2C(C)C)cn2ncnc12` [Example 151], the IC50 on human TLR7 is 49.2 nM; on human TLR8, 60 nM; at human TLR9, 23400 nM.

`CCC(C)N1CCC(NC(=O)c2n[nH]c(-c3cc(C)c4ncnn4c3)c2C(C)C)CC1` (stereo not drawn) [Example 152]: the IC50 against human TLR7 was found to be 13.7 nM; at human TLR8, 31.6 nM; at human TLR9, 20900 nM.

As for `Cc1cc(-c2[nH]nc(C(=O)NC3CCN(C4CCOCC4)CC3)c2C(C)C)cn2ncnc12` [Example 153], the IC50 against human TLR7 turned out to be 27.8 nM; at human TLR8, 6.62 nM; on human TLR9, 22300 nM.

With `Cc1cc(-c2[nH]nc(C(=O)NC3CN(CC4(C)COC4)C3)c2C(C)C)cn2ncnc12` [Example 154], the IC50 on human TLR7 was determined as 11.9 nM; against human TLR8, 3.33 nM; at human TLR9 it was 9310 nM.

Turning to `Cc1cc(-c2[nH]nc(C(=O)NC3CN(C(C)C)C3)c2C(C)C)cn2ncnc12` [Example 155], the IC50 on human TLR7 is 41.5 nM; against human TLR8, 21.5 nM; against human TLR9 it was above 50000 nM.

With `Cc1cc(-c2[nH]nc(C(=O)NC3CN(C)C3)c2C(C)C)cn2ncnc12` [Example 156], the IC50 against human TLR7 is 1.72 nM; against human TLR8, 0.09 nM; at human TLR9, 10900 nM.

Consider `COc1ncc(CN2CCC(NC(=O)c3n[nH]c(-c4cc(C)c5ncnn5c4)c3C(C)C)CC2)cn1` [Example 157], for which the results for the IC50 against human TLR7, at human TLR8 and at human TLR9 were 37.4 nM, 11.9 nM and 16400 nM, respectively.

On to `Cc1cc(-c2[nH]nc(C(=O)NC3CCN(Cc4ncn(C)n4)CC3)c2C(C)C)cn2ncnc12` [Example 158], for which the concentration for half-maximal inhibition (IC50) against human TLR7 was determined as 8.95 nM; against human TLR8 it was 31 nM; at human TLR9, 14300 nM.

Turning to `Cc1cc(-c2[nH]nc(C(=O)NC3CN(Cc4ncn(C)n4)C3)c2C(C)C)cn2ncnc12` [Example 159], the figures for the IC50 against human TLR7, against human TLR8 and against human TLR9 were 8.79 nM, 4.78 nM and 6870 nM, respectively.

As to `Cc1cc(-c2[nH]nc(C(=O)N[C@@H]3CCCN(C)C3)c2C(C)C)cn2ncnc12` [Example 160], the IC50 came out at 0.61 nM on human TLR7, 0.06 nM against human TLR8 and 5300 nM against human TLR9.

In the case of `Cc1cc(-c2[nH]nc(C(=O)N[C@@H]3CCCN(C(C)C)C3)c2C(C)C)cn2ncnc12` [Example 161], the IC50 is 18.1 nM on human TLR7, 14.7 nM at human TLR8 and 17000 nM on human TLR9.

The values are drawn from patent US20230117470A1, “SUBSTITUTED PYRAZOLE COMPOUNDS AS TOLL RECEPTOR INHIBITORS” (BRISTOL-MYERS SQUIBB COMPANY, priority 2019, published 2023).
